Earlier results, collected in US20200179438A1, “BLOOD GLUCOSE SPIKE SUPPRESSOR, FOOD PRODUCT, AND METHOD FOR PRODUCING BLOOD GLUCOSE SPIKE SUPPRESSOR” (priority 2017, published 2020).

Conditions: for time until HB purity decreases after its increase: oral administration

SMILES	time until HB purity decreases after its increase	HB purity in the blood after oral administration (oral, reached in several minutes)
C[C@@H](O)CCOC(=O)C[C@@H](C)O [KE]	within several hours	several millimolar
C[C@@H](O)CC(=O)O [HB, (R)-3-hydroxybutyric acid]	within several hours	
